Results taken from PubChem BioAssay AID1963970 (Molecular Pharmacology Branch, DTP, NCI, 2024).

System: 931267-113-T-J1-PDC multicell spheroid viability
Assay: Anticancer human tumor 931267-113-T-J1-PDC patient-derived colon adenocarcinoma cell line growth inhibition [PI3K]
Conditions: for IC50: curve of first compound; for viability, T/C: stronger effect = lower value
Method in brief: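 Stroma-containing spheroids: tumor line, pooled-donor HUVEC, hMSC. Treatments: targeted agents with PI3K inhibitors. Dosing: clinically relevant, half-log spacing, 10 microM ceiling without known Cmax. Read-out: cell viability.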

[1] = second compound 0.00316 µM, first compound 0.0316 µM
[2] = second compound 0.00316 µM, first compound 0.1 µM
[3] = second compound 0.00316 µM, first compound 0.316 µM
[4] = second compound 0.00316 µM, first compound 1 µM
[5] = second compound 0.00316 µM, first compound 3.16 µM
[6] = second compound 0.00316 µM, first compound 10 µM
[7] = second compound 0.01 µM, first compound 0.0316 µM
[8] = second compound 0.01 µM, first compound 0.1 µM
[9] = second compound 0.01 µM, first compound 0.316 µM
[10] = second compound 0.01 µM, first compound 1 µM
[11] = second compound 0.01 µM, first compound 3.16 µM
[12] = second compound 0.01 µM, first compound 10 µM
[13] = second compound 0.0316 µM, first compound 0.0316 µM
[14] = second compound 0.0316 µM, first compound 0.1 µM
[15] = second compound 0.0316 µM, first compound 0.316 µM
[16] = second compound 0.0316 µM, first compound 1 µM
[17] = second compound 0.0316 µM, first compound 3.16 µM
[18] = second compound 0.0316 µM, first compound 10 µM
[19] = second compound 0.1 µM, first compound 0.0316 µM
[20] = second compound 0.1 µM, first compound 0.1 µM
[21] = second compound 0.1 µM, first compound 0.316 µM
[22] = second compound 0.1 µM, first compound 1 µM
[23] = second compound 0.1 µM, first compound 3.16 µM
[24] = second compound 0.1 µM, first compound 10 µM
[25] = second compound 0.316 µM, first compound 0.0316 µM
[26] = second compound 0.316 µM, first compound 0.1 µM
[27] = second compound 0.316 µM, first compound 0.316 µM
[28] = second compound 0.316 µM, first compound 1 µM
[29] = second compound 0.316 µM, first compound 3.16 µM
[30] = second compound 0.316 µM, first compound 10 µM
[31] = second compound 1 µM, first compound 0.0316 µM
[32] = second compound 1 µM, first compound 0.1 µM
[33] = second compound 1 µM, first compound 0.316 µM
[34] = second compound 1 µM, first compound 1 µM
[35] = second compound 1 µM, first compound 3.16 µM
[36] = second compound 1 µM, first compound 10 µM
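Further: viability read 7 days after compound addition.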

Which results are given for `CCCS(=O)(=O)Nc1ccc(F)c(C(=O)c2c[nH]c3ncc(-c4ccc(Cl)cc4)cc23)c1F` + COc1c(OCCCN2CCOCC2)ccc2c3n(c(=NC(=O)c4cnc(N)nc4)nc12)CCN3?
IC50 (second compound 0.00316 µM): 6.3 µM; IC50 (second compound 0.01 µM): 5.98 µM; IC50 (second compound 0.0316 µM): 5.83 µM; IC50 (second compound 0.1 µM): 4.99 µM; IC50 (second compound 0.316 µM): 3.66 µM; IC50 (second compound 1 µM): < 0.0316 µM; viability, T/C [1]: 111%; viability, T/C [2]: 116%; viability, T/C [3]: 104%; viability, T/C [4]: 125%; viability, T/C [5]: 127%; viability, T/C [6]: 5.18%; viability, T/C [7]: 102%; viability, T/C [8]: 101%; viability, T/C [9]: 108%; viability, T/C [10]: 109%; viability, T/C [11]: 110%; viability, T/C [12]: 5.04%; viability, T/C [13]: 87.8%; viability, T/C [14]: 92.2%; viability, T/C [15]: 93.3%; viability, T/C [16]: 111%; viability, T/C [17]: 101%; viability, T/C [18]: 8.61%; viability, T/C [19]: 75.4%; viability, T/C [20]: 68.6%; viability, T/C [21]: 77.2%; viability, T/C [22]: 85.2%; viability, T/C [23]: 77.6%; viability, T/C [24]: 9.09%; viability, T/C [25]: 55.8%; viability, T/C [26]: 51.3%; viability, T/C [27]: 59.2%; viability, T/C [28]: 56.7%; viability, T/C [29]: 57.2%; viability, T/C [30]: 8.55%; viability, T/C [31]: 36.3%; viability, T/C [32]: 39.5%; viability, T/C [33]: 36.3%; viability, T/C [34]: 41.4%; viability, T/C [35]: 39.7%; viability, T/C [36]: 10.2%

With `C[C@@H](NC(=O)c1ncnc(N)c1Cl)c1ncc(C(=O)Nc2cc(C(F)(F)F)c(Cl)cn2)s1` + COc1c(OCCCN2CCOCC2)ccc2c3n(c(=NC(=O)c4cnc(N)nc4)nc12)CCN3 as the molecule, how does the IC50 (second compound 0.00316 µM) read?
Its IC50 is greater than 10 µM.

What about the IC50 (second compound 0.01 µM) of the same molecule?
The IC50 was greater than 10 µM.

What about the IC50 (second compound 0.0316 µM) of the same molecule?
Its IC50 is greater than 10 µM.

What about the IC50 (second compound 0.1 µM) of the same molecule?
Its IC50 is 4.05 µM.

What about the IC50 (second compound 0.316 µM) of the same molecule?
Its IC50 is 1.32 µM.

And the IC50 (second compound 1 µM)?
Its IC50 is less than 0.0316 µM.

What about the viability, T/C [1] of the same molecule?
Its viability, T/C is 109%.

And the viability, T/C [2]?
The viability, T/C was 117%.

What about the viability, T/C [3] of the same molecule?
The viability, T/C was 106%.

What about the viability, T/C [4] of the same molecule?
The viability, T/C was 111%.

And the viability, T/C [5]?
Its viability, T/C is 105%.

And the viability, T/C [6]?
The viability, T/C was 76%.

And the viability, T/C [7]?
Its viability, T/C is 108%.

And the viability, T/C [8]?
The viability, T/C was 102%.

And the viability, T/C [9]?
Its viability, T/C is 104%.

What about the viability, T/C [10] of the same molecule?
The viability, T/C was 115%.

And the viability, T/C [11]?
The viability, T/C was 96.5%.

What about the viability, T/C [12] of the same molecule?
Its viability, T/C is 74.2%.

What about the viability, T/C [13] of the same molecule?
The viability, T/C was 95.3%.

What about the viability, T/C [14] of the same molecule?
The viability, T/C was 94.4%.

What about the viability, T/C [15] of the same molecule?
The viability, T/C was 94.7%.

And the viability, T/C [16]?
The viability, T/C was 92.1%.

What about the viability, T/C [17] of the same molecule?
The viability, T/C was 76.6%.

And the viability, T/C [18]?
Its viability, T/C is 51%.

What about the viability, T/C [19] of the same molecule?
The viability, T/C was 86.5%.

What about the viability, T/C [20] of the same molecule?
Its viability, T/C is 75.8%.

What about the viability, T/C [21] of the same molecule?
The viability, T/C was 76.6%.

What about the viability, T/C [22] of the same molecule?
The viability, T/C was 65%.

What about the viability, T/C [23] of the same molecule?
Its viability, T/C is 57.2%.

What about the viability, T/C [24] of the same molecule?
Its viability, T/C is 33.7%.

And the viability, T/C [25]?
Its viability, T/C is 58.9%.

And the viability, T/C [26]?
Its viability, T/C is 58.8%.

What about the viability, T/C [27] of the same molecule?
Its viability, T/C is 59.4%.

What about the viability, T/C [28] of the same molecule?
The viability, T/C was 51.4%.

And the viability, T/C [29]?
Its viability, T/C is 41.8%.

What about the viability, T/C [30] of the same molecule?
The viability, T/C was 25.1%.

What about the viability, T/C [31] of the same molecule?
Its viability, T/C is 45.4%.

And the viability, T/C [32]?
The viability, T/C was 41%.

What about the viability, T/C [33] of the same molecule?
The viability, T/C was 42.6%.

And the viability, T/C [34]?
Its viability, T/C is 35.2%.

And the viability, T/C [35]?
The viability, T/C was 32.1%.

And the viability, T/C [36]?
The viability, T/C was 18.5%.

`Cn1ncnc1[C@H]1c2n[nH]c(=O)c3cc(F)cc(c23)N[C@@H]1c1ccc(F)cc1` + COc1c(OCCCN2CCOCC2)ccc2c3n(c(=NC(=O)c4cnc(N)nc4)nc12)CCN3 was tested. Which IC50 (second compound 0.00316 µM) did it give?
The IC50 was greater than 0.1 µM.

And the IC50 (second compound 0.01 µM)?
The IC50 was greater than 0.1 µM.

What about the IC50 (second compound 0.0316 µM) of the same molecule?
The IC50 was greater than 0.1 µM.

What about the IC50 (second compound 0.1 µM) of the same molecule?
The IC50 was greater than 0.1 µM.

What about the IC50 (second compound 0.316 µM) of the same molecule?
The IC50 was 0.00113 µM.

And the IC50 (second compound 1 µM)?
Its IC50 is less than 0.000316 µM.

And the viability, T/C (second compound 0.00316 µM, first compound 0.000316 µM)?
The viability, T/C was 103%.

And the viability, T/C (second compound 0.00316 µM, first compound 0.001 µM)?
The viability, T/C was 107%.

What about the viability, T/C (second compound 0.00316 µM, first compound 0.00316 µM) of the same molecule?
Its viability, T/C is 107%.

And the viability, T/C (second compound 0.00316 µM, first compound 0.01 µM)?
The viability, T/C was 98.7%.

And the viability, T/C [1]?
Its viability, T/C is 106%.

And the viability, T/C [2]?
The viability, T/C was 93.9%.

And the viability, T/C (second compound 0.01 µM, first compound 0.000316 µM)?
Its viability, T/C is 103%.

What about the viability, T/C (second compound 0.01 µM, first compound 0.001 µM) of the same molecule?
Its viability, T/C is 97.9%.

What about the viability, T/C (second compound 0.01 µM, first compound 0.00316 µM) of the same molecule?
Its viability, T/C is 94.2%.

What about the viability, T/C (second compound 0.01 µM, first compound 0.01 µM) of the same molecule?
The viability, T/C was 89.2%.

And the viability, T/C [7]?
The viability, T/C was 93%.

What about the viability, T/C [8] of the same molecule?
Its viability, T/C is 91.3%.

What about the viability, T/C (second compound 0.0316 µM, first compound 0.000316 µM) of the same molecule?
Its viability, T/C is 85.2%.

And the viability, T/C (second compound 0.0316 µM, first compound 0.001 µM)?
Its viability, T/C is 88.9%.

And the viability, T/C (second compound 0.0316 µM, first compound 0.00316 µM)?
The viability, T/C was 82.1%.

What about the viability, T/C (second compound 0.0316 µM, first compound 0.01 µM) of the same molecule?
Its viability, T/C is 83%.

And the viability, T/C [13]?
Its viability, T/C is 81.8%.

What about the viability, T/C [14] of the same molecule?
Its viability, T/C is 79%.

And the viability, T/C (second compound 0.1 µM, first compound 0.000316 µM)?
The viability, T/C was 70.2%.

What about the viability, T/C (second compound 0.1 µM, first compound 0.001 µM) of the same molecule?
Its viability, T/C is 68.5%.

And the viability, T/C (second compound 0.1 µM, first compound 0.00316 µM)?
Its viability, T/C is 70.7%.

What about the viability, T/C (second compound 0.1 µM, first compound 0.01 µM) of the same molecule?
Its viability, T/C is 66%.

What about the viability, T/C [19] of the same molecule?
Its viability, T/C is 69%.

And the viability, T/C [20]?
The viability, T/C was 61.3%.

And the viability, T/C (second compound 0.316 µM, first compound 0.000316 µM)?
Its viability, T/C is 54.3%.

What about the viability, T/C (second compound 0.316 µM, first compound 0.001 µM) of the same molecule?
Its viability, T/C is 52.5%.

And the viability, T/C (second compound 0.316 µM, first compound 0.00316 µM)?
The viability, T/C was 46.1%.

What about the viability, T/C (second compound 0.316 µM, first compound 0.01 µM) of the same molecule?
Its viability, T/C is 43.4%.

And the viability, T/C [25]?
Its viability, T/C is 46.4%.

And the viability, T/C [26]?
The viability, T/C was 43.4%.

What about the viability, T/C (second compound 1 µM, first compound 0.000316 µM) of the same molecule?
Its viability, T/C is 33.3%.

And the viability, T/C (second compound 1 µM, first compound 0.001 µM)?
The viability, T/C was 34.1%.

And the viability, T/C (second compound 1 µM, first compound 0.00316 µM)?
Its viability, T/C is 30.9%.

What about the viability, T/C (second compound 1 µM, first compound 0.01 µM) of the same molecule?
Its viability, T/C is 34.4%.

What about the viability, T/C [31] of the same molecule?
The viability, T/C was 36.6%.

And the viability, T/C [32]?
Its viability, T/C is 30.3%.
